Source: patent publication US10221439B2, “Sensors, methods and kits for detecting nicotinamide adenine dinucleotides” (Max-Planck-Gesellschaft zur Förderung der Wissenschaften …, priority 2015, dated 2019)
Entries after “also recorded” stand apart in the source; their conditions may differ.

Legend:
Wild-type human SPR = Wild-type human SPR (Homo sapiens, UniProt P35270); details: cited from earlier work
U2OS cells = assay: Live cells perfusion experiment with sensor expressed in the cytosol; type: cell-based; details: for sensor response (ratio TMR/SiR, NADPH/NADP^+): 100 μM perfused on U2OS cells
Description: Semi-stable U2OS (SPR-Halo-p30-SNAP cloned in a pEBTet vector; see Bach et al. FEBS J. 2007 Feb.; 274(3):783-90 for the description of pEBTet) freshly trypsinated are diluted 5-fold with DMEM GlutaMax+10% FBS and 1 μg/mL puromycin. They are plated (2 mL) in previously sterilized and poly-L-ornithine coated (1 h incubation) glass coverslips (20×20 mm, VWR) in 12-well plate (TPP). On day 2, the expression is induced by 100 ng/mL doxycycline for ˜24 h. […] On day 4, the cells are washed 3 times with DMEM GlutaMax+10% FBS without phenol red (10 min incubation, 37° C., 5% CO2 between each step). After 30 min of incubation, the cells are ready for imaging. Glass coverslips with labelled U2OS cells were transferred to a Cytoo chamber (44×34×10 mm). Gravity fed perfusion of the chamber was performed at a flow rate of 1 mL/min. Time-course experiments of sensor imaging were performed using a Leica LAS AF 7000 wide-field microscope equipped with a 63× plan Apochromat 1.40 NA oil immersion objective lens. A xenon arc lamp was used for imaging of the U2OS cells. For each frame, the two channels (donor and FRET) were measured consecutively with an interval of 10 s between the two emission channels. The filter set Cy3/Cy5 was used for FRET ratio imaging with excitation at 530/35 and emission at 580/40 (Cy3) as well as excitation at 635/30 and emission at 700/72 (Cy5). If not indicated otherwise, the image size was […]. The reagent perfused during the experiment (H2O2, SPY) were dissolved in HBSS (Lonza). HBSS solution was continuously perfused during the other time point of the experiment.

[1] = cited from earlier work

Chain of Wild-type human SPR (P35270 whole entry, the tested form may be a part): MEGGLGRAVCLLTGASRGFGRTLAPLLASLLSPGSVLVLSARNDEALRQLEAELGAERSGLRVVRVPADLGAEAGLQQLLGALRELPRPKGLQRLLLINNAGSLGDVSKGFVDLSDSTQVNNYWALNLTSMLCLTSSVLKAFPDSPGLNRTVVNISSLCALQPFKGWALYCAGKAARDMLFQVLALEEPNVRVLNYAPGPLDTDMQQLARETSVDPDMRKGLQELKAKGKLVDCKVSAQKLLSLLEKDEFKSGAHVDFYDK

nicotinamide adenine dinucleotide phosphate [NADPH]
Kd (Wild-type human SPR): 1 µM

Nc1ccc(S(=O)(=O)Nc2ccccn2)cc1 [sulfapyridine]
sensor response (ratio TMR/SiR) (U2OS cells; 2 mM perfused on U2OS cells): increased ratio TMR/SiR; also recorded: fully open the sensor | pKa of the sulfonamide proton [1]: 8.4

nicotinamide adenine dinucleotide phosphate [NADP^+]
Kd (Wild-type human SPR): 10 µM

OO [H2O2, hydrogen peroxide]
sensor response (ratio TMR/SiR, NADPH/NADP^+) (U2OS cells): decreased NADPH/NADP^+ ratio | sensor response (ratio TMR/SiR, NADPH/NADP^+) (U2OS cells; listed as hydrogen peroxide): sharp decrease of the ratio
